Test results reported in ChEMBL document CHEMBL5143714, “Discovery of BMS-986339, a Pharmacologically Differentiated Farnesoid X Receptor Agonist for the Treatment of Nonalcoholic Steatohepatitis” (J Med Chem, 2022).
pEC50: −log10 of the molar value.

Experiments:
[1] = biological target: T1, Bile acid receptor (Mus musculus, UniProt Q60641); test: Agonist activity at mouse LBD fused FXR in HEK293 cells incubated for 30 min by envision plate reader method; type: cell-based
T1 sequence (Q60641 whole entry): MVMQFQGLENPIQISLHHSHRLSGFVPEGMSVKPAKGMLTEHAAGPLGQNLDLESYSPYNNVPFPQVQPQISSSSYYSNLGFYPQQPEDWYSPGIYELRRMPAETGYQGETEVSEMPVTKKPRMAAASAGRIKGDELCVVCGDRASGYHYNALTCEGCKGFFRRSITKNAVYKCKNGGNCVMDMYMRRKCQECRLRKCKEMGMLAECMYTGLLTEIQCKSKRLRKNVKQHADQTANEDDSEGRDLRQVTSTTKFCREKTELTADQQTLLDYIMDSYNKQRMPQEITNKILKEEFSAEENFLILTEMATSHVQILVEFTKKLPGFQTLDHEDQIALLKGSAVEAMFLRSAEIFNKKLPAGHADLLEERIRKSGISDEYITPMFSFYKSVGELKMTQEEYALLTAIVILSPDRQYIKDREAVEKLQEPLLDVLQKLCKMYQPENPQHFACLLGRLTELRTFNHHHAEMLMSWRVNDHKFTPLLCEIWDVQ

[2] = system: Bile acid receptor (Homo sapiens); test: Agonist activity at human FXR expressed in HEK293 cells coexpressing IBABP relative to GW2064; conditions: filed as agonist
[3] = biological target: T2, Bile acid receptor (Homo sapiens) (UniProt Q96RI1); test: Agonist activity at LBD-fused human FXR in HEK293 cells incubated for 30 min by envision plate reader method relative to GW2064; type: cell-based
T2 sequence (whole entry): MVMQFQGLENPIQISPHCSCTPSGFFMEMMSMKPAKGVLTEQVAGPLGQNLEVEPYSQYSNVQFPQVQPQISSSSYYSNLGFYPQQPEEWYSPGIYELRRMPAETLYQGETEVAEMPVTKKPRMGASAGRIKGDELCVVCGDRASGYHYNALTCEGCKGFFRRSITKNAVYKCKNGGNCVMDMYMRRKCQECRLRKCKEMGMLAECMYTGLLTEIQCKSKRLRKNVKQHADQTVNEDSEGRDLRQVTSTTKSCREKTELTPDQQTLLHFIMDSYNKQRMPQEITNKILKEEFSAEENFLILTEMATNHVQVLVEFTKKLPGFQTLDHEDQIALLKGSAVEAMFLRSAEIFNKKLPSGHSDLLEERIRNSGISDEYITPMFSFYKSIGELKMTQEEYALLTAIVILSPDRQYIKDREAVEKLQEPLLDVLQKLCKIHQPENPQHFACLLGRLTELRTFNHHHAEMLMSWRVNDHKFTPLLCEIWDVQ

[4] = system: Bile acid receptor (Homo sapiens); test: Agonist activity at human FXR expressed in HEK293 cells coexpressing human FGF19 incubated for 24 hrs by ELISA analysis relative to GW2064
[5] = biological target: T3, Bile acid receptor (Homo sapiens, UniProt Q96RI1); test: Agonist activity at Gal4-fused human FXR in HEK293 cells incubated for 15 min by luciferase reporter assay; type: cell-based
T3 sequence (Q96RI1 whole entry): T2 sequence (whole entry)

[6] = Metabolic stability in human liver microsome assessed as parent compound remaining at 1 mg/mL measured after 10 mins; type: ADME; conditions: liver microsomes, read-out: Stability
[7] = Metabolic stability in rat liver microsome assessed as parent compound remaining at 1 mg/mL measured after 10 mins; type: ADME; conditions: liver microsomes, read-out: Stability
[8] = Metabolic stability in mouse liver microsome assessed as parent compound remaining at 1 mg/mL measured after 10 mins; type: ADME; conditions: liver microsomes, read-out: Stability
[9] = biological target: T4, Bile acid receptor (Mus musculus) (UniProt Q60641); test: Agonist activity at LBD-fused mouse FXR in HEK293 cells incubated for 30 min by envision plate reader method relative to GW2064; type: cell-based; conditions: filed as agonist
T4 sequence (whole entry): T1 sequence (Q60641 whole entry)

pEC50 [1]	Emax [2]	Emax [3]	Emax [4]	pEC50 [5]	remaining at 10 min [6]	remaining at 10 min, 1 mg/mL [7]	remaining at 10 min [8]	Emax [9]	SMILES
6.49									O=C(O)c1cc(C(F)(F)F)c2cc(N3CCC4(C=C(c5c(-c6c(Cl)cncc6Cl)noc5C5CC5)C4)CC3)ccc2n1
	42%	30%	24%	7.18	90%	32%	77%	279%	COC(=O)/C=C/c1cccc(N(CC23CCC(c4ccc(N(C)C)cc4)(CC2)CC3)C(=O)C2CCCCC2)c1
